Reference: patent US9249453B2, “Method for identifying a malodor inhibitor” (Kao Corporation, priority 2011, dated 2016)
Entries after “also recorded” stand apart in the source; their conditions may differ.

Legend:
OR2W1 [1] = target: T1, OR2W1 (Homo sapiens, UniProt Q9Y3N9); test: Luciferase reporter assay: odorant response of OR2W1 expressed in HEK293 cells; assay type: cell-based; conditions: for response of olfactory receptor at different concentration: 0, 3, 10, 30, 100, 300, and 1000 μM odorant, OR2W1, FIG. 2/3
T1 construct: expressed in transfected cells; host or cells: HEK293
T1 sequence (Q9Y3N9 1-320): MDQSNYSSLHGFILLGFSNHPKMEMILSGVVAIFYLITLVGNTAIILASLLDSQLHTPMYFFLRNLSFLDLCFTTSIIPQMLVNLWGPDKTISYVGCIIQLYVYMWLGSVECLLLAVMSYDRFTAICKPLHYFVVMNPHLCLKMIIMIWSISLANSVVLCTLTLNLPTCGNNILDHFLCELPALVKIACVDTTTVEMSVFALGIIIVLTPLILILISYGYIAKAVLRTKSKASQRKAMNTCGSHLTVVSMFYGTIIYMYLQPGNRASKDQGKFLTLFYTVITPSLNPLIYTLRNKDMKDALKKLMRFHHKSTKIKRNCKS
Method: (§1) Each of the 369 types of human olfactory receptors was expressed in HEK293 cells. A reaction solution having a composition shown in Table 1 was prepared on a clean bench, and left to stand for 15 minutes. The solution was dispensed to each well of a 96-well plate (BD). Subsequently, HEK293 cells (100 μL, 3×10^5 cells/cm^2) were seeded in each well and cultured for 24 hours in an incubator at 37° C. and under 5% CO2 conditions.
(§2) The olfactory receptor expressed in HEK293 cells activates adenylate cyclase with the aid of Gαs present in cells, to thereby increase intracellular cAMP level. In this study, odorant response was measured by a luciferase reporter gene assay which monitored the intracellular cAMP level as the luminescence value derived from a firefly luciferase gene (fluc2P-CRE-hygro). Also, a Renilla luciferase gene fused downstream of a CMV promoter (hRluc-CMV) was also transfected to HEK293 cells as an internal standard to correct errors in gene transfer efficiency and number of cells.
(§3) The culture medium was removed from the culture plate produced in (3) above, and a solution (75 μL) containing an odorant substance (1 mM skatole) in CD293 medium (Invitrogen) was added to each well. […] Luciferase activity was measured by means of a Dual-Glo™ luciferase assay system (promega) according to an instruction manual thereof. The luminescence value derived from firefly luciferase induced by odorant stimulation was divided by the luminescence value of cells which were not stimulated with odorants. […]
(§4) In a manner similar to that employed in Example 1, each of olfactory receptor OR2W1 (SEQ ID NO: 2), OR5K1 (SEQ ID NO: 4), OR5P3 (SEQ ID NO: 6), and OR8H1 (SEQ ID NO: 8) was expressed with RTP1S mutant (SEQ ID NO: 12) in HEK293 cells. The response of each receptor to skatole (0, 3, 10, 30, 100, 300, and 1000 μM) was determined.
(§5) In a manner similar to that employed in Example 2, the response of each olfactory receptor to skatole and indole (each 0, 3, 10, 30, 100, 300, and 1000 μM) was determined.

OR5K1 [2] = target: T2, OR5K1 (Homo sapiens, UniProt Q8NHB7); test: Luciferase reporter assay: odorant response of OR5K1 expressed in HEK293 cells; assay type: cell-based; conditions: for response of olfactory receptor at different concentration: 0, 3, 10, 30, 100, 300, and 1000 μM odorant, OR5K1, FIG. 2/3
T2 construct: expressed in transfected cells; host or cells: HEK293
T2 sequence (Q8NHB7 1-308): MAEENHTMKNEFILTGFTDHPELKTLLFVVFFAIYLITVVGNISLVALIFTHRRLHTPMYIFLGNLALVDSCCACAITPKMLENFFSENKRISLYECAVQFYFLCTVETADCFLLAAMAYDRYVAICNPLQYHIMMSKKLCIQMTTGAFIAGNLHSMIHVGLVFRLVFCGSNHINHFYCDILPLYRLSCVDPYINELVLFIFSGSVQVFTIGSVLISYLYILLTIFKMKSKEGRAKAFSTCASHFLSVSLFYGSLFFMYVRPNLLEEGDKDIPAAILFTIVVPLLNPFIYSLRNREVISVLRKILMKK
Method: as §1, §2, §3, §4, §5

OR5P3 [3] = target: T3, OR5P3 (Homo sapiens, UniProt Q8WZ94); test: Luciferase reporter assay: odorant response of OR5P3 expressed in HEK293 cells; assay type: cell-based; conditions: for response of olfactory receptor at different concentration: 0, 3, 10, 30, 100, 300, and 1000 μM odorant, OR5P3, FIG. 2/3
T3 construct: expressed in transfected cells; host or cells: HEK293
T3 sequence (Q8WZ94 1-311): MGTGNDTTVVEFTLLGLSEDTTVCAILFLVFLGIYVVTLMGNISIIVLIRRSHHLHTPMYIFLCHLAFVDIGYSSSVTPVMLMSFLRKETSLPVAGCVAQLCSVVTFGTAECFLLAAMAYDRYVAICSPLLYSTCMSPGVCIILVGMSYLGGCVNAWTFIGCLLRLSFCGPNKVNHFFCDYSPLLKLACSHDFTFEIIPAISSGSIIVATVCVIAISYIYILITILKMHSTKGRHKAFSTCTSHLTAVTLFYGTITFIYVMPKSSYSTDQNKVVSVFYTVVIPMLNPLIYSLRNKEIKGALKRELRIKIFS
Method: as §1, §2, §3, §4, §5

OR8H1 [4] = target: T4, OR8H1 (Homo sapiens, UniProt Q8NGG4); test: Luciferase reporter assay: odorant response of OR8H1 expressed in HEK293 cells; assay type: cell-based; conditions: for response of olfactory receptor at different concentration: 0, 3, 10, 30, 100, 300, and 1000 μM odorant, OR8H1, FIG. 2/3
T4 construct: expressed in transfected cells; host or cells: HEK293
T4 sequence (Q8NGG4 1-311): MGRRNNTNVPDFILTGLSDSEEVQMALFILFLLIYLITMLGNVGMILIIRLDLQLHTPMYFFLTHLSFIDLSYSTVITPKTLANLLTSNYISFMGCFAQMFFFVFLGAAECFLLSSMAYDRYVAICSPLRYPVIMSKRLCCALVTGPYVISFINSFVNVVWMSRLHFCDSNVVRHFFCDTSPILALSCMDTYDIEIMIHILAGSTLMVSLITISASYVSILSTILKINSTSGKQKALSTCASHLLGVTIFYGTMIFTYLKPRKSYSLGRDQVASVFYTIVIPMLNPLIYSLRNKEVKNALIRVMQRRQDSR
Method: as §1, §2, §3, §4, §5

OR2W1 [5] = target: T1, OR2W1; test: Luciferase reporter assay: suppression of the skatole response of OR2W1 expressed in HEK293 cells; assay type: cell-based; conditions: 4 h; test substance 100 μM mixed with 300 μM skatole, HEK293 cells expressing OR2W1; read-out: Inhibition rate 2W1
Method: as §1, with “A” for “Each of the 369 types of human olfactory receptors was expressed in HEK293 cells. A”
as §2
(§6) Cell culturing was performed for four hours in a CO2-incubator, whereby the luciferase gene sufficiently expressed in the cells. Luciferase activity was measured by means of a Dual-Glo™ luciferase assay system (promega) according to an instruction manual thereof. The luminescence value derived from firefly luciferase induced by odorant stimulation was divided by the luminescence value of cells which were not stimulated with odorants. The thus-obtained—called “fold increase”—was employed as an index for response intensity.
(§7) The response inhibition rate of a test substance was calculated as follows. Firstly, luminescence value derived from firefly luciferase induced by stimulation with skatole (X), and luminescence value in cells which expressed the same receptor but were not stimulated with skatole (Y) were determined. By subtracting Y from X, the receptor activity by stimulation with skatole alone (X−Y) was determined. Similarly, the luminescence value induced by stimulation with a mixture of skatole and a test substance (Z) was determined. Through subtracting Y (the luminescence value in cells which expressed the same receptor but were not stimulated with skatole) from Z, the receptor activity (Z−Y) by stimulation with a mixture of skatole and the test substance was obtained. From the thus-obtained receptor activity by stimulation with skatole alone (X−Y) and the receptor activity in the presence of a test material (Z−Y), the response inhibition rate of the test substance was calculated by the following equation: Inhibition rate (%)={1−(Z−Y)/(X−Y)}×100.
(§8) In each case, multiple independent experiments were performed in duplicate, and the average of each experiment was used.

OR5K1 [6] = target: T2, OR5K1; test: Luciferase reporter assay: suppression of the skatole response of OR5K1 expressed in HEK293 cells; assay type: cell-based; conditions: 4 h; test substance 100 μM mixed with 300 μM skatole, HEK293 cells expressing OR5K1; read-out: Inhibition rate 5K1
Method: as §1, with “A” for “Each of the 369 types of human olfactory receptors was expressed in HEK293 cells. A”
as §2, §6, §7, §8

OR5P3 [7] = target: T3, OR5P3; test: Luciferase reporter assay: suppression of the skatole response of OR5P3 expressed in HEK293 cells; assay type: cell-based; conditions: test substance 100 μM mixed with 300 μM skatole, HEK293 cells expressing OR5P3
Method: as §1, with “A” for “Each of the 369 types of human olfactory receptors was expressed in HEK293 cells. A”
as §2, §6, §7, §8

OR8H1 [8] = target: T4, OR8H1; test: Luciferase reporter assay: suppression of the skatole response of OR8H1 expressed in HEK293 cells; assay type: cell-based; conditions: 4 h; test substance 100 μM mixed with 300 μM skatole, HEK293 cells expressing OR8H1; read-out: Inhibition rate 8H1
Method: as §1, with “A” for “Each of the 369 types of human olfactory receptors was expressed in HEK293 cells. A”
as §2, §6, §7, §8

[9] = Sensory test by panelists: suppression of skatole odor; assay type: in vivo; conditions: Example 6: test substance diluted by 1% with propylene glycol, n=3, FIG. 5
Method: A cotton ball was put into a glass bottle (Hakuyo. […] The glass bottle was left to stand for one night at room temperature, to thereby sufficiently evaporate the odorant molecule. The sensory test was performed by four panelists. In the case where skatole alone was added to a glass bottle, the odor intensity was rated to 5. Then, the malodor intensity in the case where skatole and a test substance were added was evaluated with a rating of 0 to 10 (by 0.5) (i.e., 20 ratings) In order to investigate specificity of malodor suppressing effect of a test substance identified in Example 4, the sensory test was also performed with hexanoic acid, a malodorous compound but structurally differs from skatole. In the experiment, hexanoic acid diluted by 1% with propylene glycol was used as a malodorous compound, and methyl dihydrojasmonate diluted by 1% with propylene glycol was used as a test substance.

[10] = Sensory test by panelists: suppression of hexanoic acid odor; assay type: in vivo; conditions: Example 6: hexanoic acid 1% and test substance 1% in propylene glycol, n=3, FIG. 5
Method: A cotton ball was put into a glass bottle (Hakuyo. Glass No. 11, capacity: 110 mL), and skatole diluted by 0.001% with propylene glycol (20 μL) and a test substance also diluted by 0.001% (20 μL) were added to the cotton ball. The glass bottle was left to stand for one night at room temperature, to thereby sufficiently evaporate the odorant molecule. The sensory test was performed by four panelists. In the case where skatole alone was added to a glass bottle, the odor intensity was rated to 5. Then, the malodor intensity in the case where skatole and a test substance were added was evaluated with a rating of 0 to 10 (by 0.5) (i.e., 20 ratings) In order to investigate specificity of malodor suppressing effect of a test substance identified in Example 4, the sensory test was also performed with hexanoic acid, a malodorous compound but structurally differs from skatole. In the experiment, hexanoic acid diluted by 1% with propylene glycol was used as a malodorous compound, and methyl dihydrojasmonate diluted by 1% with propylene glycol was used as a test substance.

Row | inhibition at 100 µM (OR2W1 [5]) | inhibition at 100 µM (OR5K1 [6]) | Inhibition rate 5P3 (OR5P3 [7]) | inhibition at 100 µM (OR8H1 [8]) | response of olfactory receptor (fold increase) (OR2W1 [1]; 1 mM odorant, OR2W1, FIG. 1) | response of olfactory receptor (fold increase) (OR5K1 [2]; 1 mM odorant, OR5K1, FIG. 1) | response of olfactory receptor (fold increase) (OR5P3 [3]; 1 mM odorant, OR5P3, FIG. 1) | response of olfactory receptor (fold increase) (OR8H1 [4]; 1 mM odorant, OR8H1, FIG. 1) | Compound | response of olfactory receptor at different concentration (OR2W1 [1]) | response of olfactory receptor at different concentration (OR5K1 [2]) | response of olfactory receptor at different concentration (OR5P3 [3]) | response of olfactory receptor at different concentration (OR8H1 [4]) | suppression effect on skatole odor [9] | suppression effect on hexanoic acid odor [10]
1 | – | – | – | – | – | – | – | – | c1ccc2[nH]ccc2c1 [indole] | exhibited a response | exhibited a response | exhibited a response | exhibited a response | – | –
2 | 50 to 80% | < 20% | B (B >50%) | 50 to 80% | – | – | – | – | CCCCCC1C(=O)CCC1CC(=O)OC (stereo not drawn) [methyl dihydrojasmonate, Methyl 2-penthyl-3-oxocyclopent-1-yl acetate] | – | – | – | – | suppressed skatole odor | did not suppress hexanoic acid odor
3 | – | – | – | – | exhibited response | exhibited response | exhibited response | exhibited response | Cc1c[nH]c2ccccc12 [skatole] | dose-dependent response; also recorded: exhibited a response | dose-dependent response; also recorded: exhibited a response | dose-dependent response; also recorded: exhibited a response | dose-dependent response; also recorded: exhibited a response | – | –
